According to BindingDB's records for PubMed 2419545 (National Institutes of Health, 1986):
Substitutions are numbered along the chain they refer to. “And” between values parts separate entries of the source, which are not always exact repeats. Equal values may be shown once. Residues, ends and D or L forms follow the SMILES beside them.

Experiments:
[1] = biological target: T1, Substance-K receptor (Cavia porcellus, UniProt Q64077)
T1 sequence (Q64077 whole entry): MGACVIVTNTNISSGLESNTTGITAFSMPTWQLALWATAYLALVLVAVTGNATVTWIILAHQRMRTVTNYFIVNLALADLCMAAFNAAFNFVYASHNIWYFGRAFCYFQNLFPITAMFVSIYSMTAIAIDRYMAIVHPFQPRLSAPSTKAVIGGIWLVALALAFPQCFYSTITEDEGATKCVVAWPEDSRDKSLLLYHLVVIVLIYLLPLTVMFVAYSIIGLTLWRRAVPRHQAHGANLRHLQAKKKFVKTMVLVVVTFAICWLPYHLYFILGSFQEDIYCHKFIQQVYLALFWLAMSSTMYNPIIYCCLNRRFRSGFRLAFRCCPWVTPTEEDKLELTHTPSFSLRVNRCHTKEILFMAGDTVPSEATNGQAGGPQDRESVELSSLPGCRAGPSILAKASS

[2] = biological target: T2, Protachykinin-1 (Mus musculus, UniProt P41539)
T2 sequence (P41539 whole entry): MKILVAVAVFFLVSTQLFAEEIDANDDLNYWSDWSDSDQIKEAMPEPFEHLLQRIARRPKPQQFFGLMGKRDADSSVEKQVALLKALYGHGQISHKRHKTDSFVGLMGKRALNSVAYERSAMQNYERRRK

[3] = biological target: Substance P (Cavia porcellus, UniProt P67932)
[4] = biological target: Eledoisin (Eledone moschata, UniProt P62934)
[5] = biological target: T3, Protachykinin-1 (Rattus norvegicus, UniProt P06767)
T3 sequence (P06767 whole entry): T2 sequence (P41539 whole entry) with D23G, V77I

[6] = biological target: T4, ATP synthase subunit a (Rattus norvegicus, UniProt P05504)
T4 sequence (P05504 whole entry): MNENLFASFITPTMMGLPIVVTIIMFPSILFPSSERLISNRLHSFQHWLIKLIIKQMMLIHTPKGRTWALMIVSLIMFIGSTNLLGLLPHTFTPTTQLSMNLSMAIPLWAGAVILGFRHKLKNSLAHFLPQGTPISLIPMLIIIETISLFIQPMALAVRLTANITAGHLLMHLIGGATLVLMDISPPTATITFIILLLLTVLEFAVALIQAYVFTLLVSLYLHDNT

[7] = biological target: Class E basic helix-loop-helix protein 22 (Mus musculus, UniProt Q8C6A8)
Chain of Class E basic helix-loop-helix protein 22 (Q8C6A8 whole entry): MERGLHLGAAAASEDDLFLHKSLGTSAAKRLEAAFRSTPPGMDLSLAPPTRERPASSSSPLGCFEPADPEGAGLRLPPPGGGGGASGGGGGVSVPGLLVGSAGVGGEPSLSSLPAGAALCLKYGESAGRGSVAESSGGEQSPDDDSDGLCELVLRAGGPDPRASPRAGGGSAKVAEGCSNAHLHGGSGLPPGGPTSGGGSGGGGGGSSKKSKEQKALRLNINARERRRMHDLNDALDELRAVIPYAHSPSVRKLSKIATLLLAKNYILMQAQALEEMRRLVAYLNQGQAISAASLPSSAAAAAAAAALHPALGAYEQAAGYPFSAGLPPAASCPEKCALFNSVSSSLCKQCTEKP

Ki [1] [nM]	Ki [2]	Ki [3] [nM]	Ki [4] [nM]	Ki [5]	Ki [6]	Ki [7] [nM]	Compound
15	9 nM and 5 nM	9	2.2	16 nM and 9 nM	4.2 nM and 3 nM		CC[C@H](C)[C@H](NC(=O)[C@H](Cc1ccccc1)NC(=O)[C@H](C)NC(=O)[C@H](CC(=O)O)NC(=O)[C@H](CCCCN)NC(=O)[C@H](CO)NC(=O)[C@@H]1CCCN1C(=O)[C@@H]1CCC(=O)N1)C(=O)NCC(=O)N[C@@H](CC(C)C)C(=O)N[C@@H](CCSC)C(N)=O (HELM PEPTIDE1{[Glp].P.S.K.D.A.F.I.G.L.M.[am]}$$$$V2.0)
1.3	1 nM and 4 nM	8	10	1.3 nM and 4.6 nM		0.5	CSCC[C@H](NC(=O)[C@H](CC(C)C)NC(=O)CNC(=O)[C@@H](NC(=O)[C@H](Cc1ccccc1)NC(=O)[C@H](CO)NC(=O)[C@H](CC(=O)O)NC(=O)[C@@H](NC(=O)[C@H](CCCCN)NC(=O)[C@@H](N)Cc1cnc[nH]1)[C@@H](C)O)C(C)C)C(N)=O [Neurokinin alpha]
200	20 nM and 80 nM	35	17	50 nM and 56 nM	4.7 nM and 6 nM	10	CSCC[C@H](NC(=O)[C@H](CC(C)C)NC(=O)CNC(=O)[C@@H](NC(=O)[C@H](Cc1ccccc1)NC(=O)[C@H](Cc1ccccc1)NC(=O)[C@H](CC(=O)O)NC(=O)[C@H](Cc1c[nH]cn1)NC(=O)[C@H](CCSC)NC(=O)[C@@H](N)CC(=O)O)C(C)C)C(N)=O [NSC_5311312]
11	7 nM	9	2.6	6 nM and 9 nM	4.1 nM and 1.9 nM	0.5	H-DVPKSDQFVGLM-NH2 [CAS_45749]
200		0.2	19		106 nM and 21 nM	47	CSCC[C@H](NC(=O)[C@H](CC(C)C)NC(=O)CNC(=O)[C@H](Cc1ccccc1)NC(=O)[C@H](Cc1ccccc1)NC(=O)[C@H](CCC(N)=O)NC(=O)[C@H](CCC(N)=O)NC(=O)[C@@H]1CCCN1C(=O)[C@H](CCCCN)NC(=O)[C@@H]1CCCN1C(=O)[C@@H](N)CCCN=C(N)N)C(N)=O [Arg-Pro-Lys-Pro-Gln-Gln-Phe-Phe-Gly-Leu-Met NH2]
340	175 nM	0.7	14		23 nM and 30 nM	17	CSCC[C@H](NC(=O)[C@H](CC(C)C)NC(=O)CNC(=O)[C@H](Cc1ccc(O)cc1)NC(=O)[C@H](Cc1ccccc1)NC(=O)[C@H](CCCCN)NC(=O)[C@H](CC(N)=O)NC(=O)[C@@H]1CCCN1C(=O)[C@H](CC(=O)O)NC(=O)[C@H](C)NC(=O)[C@@H]1CCC(=O)N1)C(N)=O [physalaemin] (HELM PEPTIDE1{[Glp].A.D.P.N.K.F.Y.G.L.M.[am]}$$$$V2.0)
